Assay results published in PMC3969094 (Journal of Medicinal Chemistry, 2014).
Positions of bridges follow the written chain, without caps; N, C: chain ends. Non-standard residues stand in square brackets, D forms with d. Residues, ends and D or L forms follow the SMILES beside them. *: point of attachment. FITC = O=C1OC2(c3ccc(O)cc3Oc3cc(O)ccc32)c2ccc(NC(=S)*)cc21; Phe(3,4-Cl2) = N[C@@H](Cc1ccc(Cl)c(Cl)c1)C(=O)O; S5 = C=CCCC[C@](C)(N)C(=O)O; Ahx = NCCCCCC(=O)O

Key:
RPA70C/32D/14 = test: Direct binding FPA assay, selectivity; conditions: read-out: Kd for RPA70C/32D/14, FITC-labeled stapled peptide
RPA70N = RPA70N (Homo sapiens, UniProt P27694); test: FPA direct binding of FITC-labeled peptides; conditions: stapled peptides, versus phenylalanine counterparts

SMILES	Kd (RPA70C/32D/14)	increase in affinity by dichlorophenylalanine substitution (RPA70N)
CC(C)C[C@H](NC(=O)[C@H](C)NC(=O)[C@H](Cc1ccc(Cl)c(Cl)c1)NC(=O)[C@H](Cc1c[nH]c2ccccc12)NC(=O)[C@]1(C)CCCC=CCCC[C@](C)(NC(=O)[C@H](C)NC(=O)[C@@H](NC(=O)[C@H](Cc2ccccc2)NC(=O)[C@H](CC(N)=O)NC(=O)CCCCCNC(=S)Nc2ccc3c(c2)C(=O)OC32c3ccc(O)cc3Oc3cc(O)ccc32)[C@@H](C)O)C(=O)N[C@@H](CC(N)=O)C(=O)N[C@@H](CC(C)C)C(=O)N[C@@H](CCC(=O)O)C(=O)N1)C(N)=O [Peptide-39] ({FITC-Ahx}-NFTA[S5]NLE[S5]W[Phe(3,4-Cl2)]AL-NH2; staple 5-9)	2.4 µM	175 fold
CC(C)C[C@H](NC(=O)[C@H](C)NC(=O)[C@H](Cc1ccc(Cl)c(Cl)c1)NC(=O)[C@H](Cc1c[nH]c2ccccc12)NC(=O)[C@]1(C)CCCC=CCCC[C@](C)(NC(=O)[C@H](C)NC(=O)[C@@H](NC(=O)[C@H](Cc2ccccc2)NC(=O)[C@H](CC(N)=O)NC(=O)CCCCCNC(=S)Nc2ccc3c(c2)C(=O)OC32c3ccc(O)cc3Oc3cc(O)ccc32)[C@@H](C)O)C(=O)N[C@@H](CC(=O)O)C(=O)N[C@@H](CC(C)C)C(=O)N[C@@H](CCC(=O)O)C(=O)N1)C(N)=O [Peptide-38] ({FITC-Ahx}-NFTA[S5]DLE[S5]W[Phe(3,4-Cl2)]AL-NH2; staple 5-9)	–	31 fold
